Experimental data from US20210045385A1, “PYRIDAZINONE-SUBSTITUTED KETOXIMES AS HERBICIDES” (FMC Corporation, priority 2018, published 2021).

Key:
Assay type in all cases: in vivo
[1] = test system: foxtail, giant (giant foxtail, Setaria faberii); assay: Test A postemergence, visual plant response rating; settings: for Foxtail, Giant plant response rating (0 to 100 scale): 500 g ai/ha, postemergence, 0 is no effect, 100 is complete control; for Foxtail, Giant plant response rating: Postemergence, 125 g ai/ha, 0 to 100 scale (0 no effect, 100 complete control)
In short: (§1)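 Preemergence: seeds in loam/sand blend given directed soil spray of compound in non-phytotoxic solvent with surfactant. Postemergence: plants 2–10 cm, one- to two-leaf stage, sprayed with same formulation. Visual injury rated vs untreated controls after ~10 days in greenhouse, 0 (no effect) to 100 (complete control).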

[2] = test system: barnyardgrass (Echinochloa crus-galli); assay: Test A postemergence, visual plant response rating; settings: for Barnyardgrass plant response rating (0 to 100 scale): 500 g ai/ha, postemergence, 0 is no effect, 100 is complete control; for Barnyardgrass plant response rating: Postemergence, 125 g ai/ha, 0 to 100 scale (0 no effect, 100 complete control)
In short: as §1

[3] = test system: wheat (Triticum aestivum); assay: Test A postemergence, visual plant response rating; settings: for Wheat plant response rating (0 to 100 scale): 500 g ai/ha, postemergence, 0 is no effect, 100 is complete control; for Wheat plant response rating: Postemergence, 125 g ai/ha, 0 to 100 scale (0 no effect, 100 complete control)
In short: as §1

[4] = test system: ragweed (common ragweed, Ambrosia elatior); assay: Test A postemergence, visual plant response rating; settings: for Ragweed plant response rating (0 to 100 scale): 500 g ai/ha, postemergence, 0 is no effect, 100 is complete control; for Ragweed plant response rating: Postemergence, 125 g ai/ha, 0 to 100 scale (0 no effect, 100 complete control)
In short: as §1

[5] = test system: corn (Zea mays); assay: Test A postemergence, visual plant response rating; settings: for Corn plant response rating (0 to 100 scale): 500 g ai/ha, postemergence, 0 is no effect, 100 is complete control; for Corn plant response rating: Postemergence, 125 g ai/ha, 0 to 100 scale (0 no effect, 100 complete control)
In short: as §1

[6] = test system: kochia (Kochia scoparia); assay: Test A postemergence, visual plant response rating; settings: for Kochia plant response rating (0 to 100 scale): 500 g ai/ha, postemergence, 0 is no effect, 100 is complete control; for Kochia plant response rating: Postemergence, 125 g ai/ha, 0 to 100 scale (0 no effect, 100 complete control)
In short: as §1

[7] = test system: blackgrass (Alopecurus myosuroides); assay: Test A postemergence, visual plant response rating; settings: for Blackgrass plant response rating (0 to 100 scale): 500 g ai/ha, postemergence, 0 is no effect, 100 is complete control; for Blackgrass plant response rating: Postemergence, 125 g ai/ha, 0 to 100 scale (0 no effect, 100 complete control)
In short: as §1

[8] = test system: Italian ryegrass (Lolium multiflorum); assay: Test A postemergence, visual plant response rating; settings: for Ryegrass, Italian plant response rating (0 to 100 scale): 500 g ai/ha, postemergence, 0 is no effect, 100 is complete control; for Ryegrass, Italian plant response rating: Postemergence, 125 g ai/ha, 0 to 100 scale (0 no effect, 100 complete control)
In short: as §1

[9] = test system: galium (catchweed bedstraw, Galium aparine); assay: Test A postemergence, visual plant response rating; settings: for Galium plant response rating (0 to 100 scale): 500 g ai/ha, postemergence, 0 is no effect, 100 is complete control; for Galium plant response rating: Postemergence, 125 g ai/ha, 0 to 100 scale (0 no effect, 100 complete control)
In short: as §1

[10] = test system: pigweed (Amaranthus retroflexus); assay: Test A postemergence, visual plant response rating; settings: for Pigweed plant response rating (0 to 100 scale): 500 g ai/ha, postemergence, 0 is no effect, 100 is complete control; for Pigweed plant response rating: Postemergence, 125 g ai/ha, 0 to 100 scale (0 no effect, 100 complete control)
In short: as §1

[11] = test system: barnyardgrass (Echinochloa crus-galli); assay: Test B flooded paddy test, visual plant response rating; settings: 250 g ai/ha, Flood, applied to paddy water, 2-leaf stage, evaluated after 13 to 15 days
In short: (§2)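 Visual scores compare treated plants with controls after 13 to 15 days of greenhouse growth. Treatment was made into paddy water standing 3 cm above the soil, with plants at the 2-leaf stage and flooding maintained throughout.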

[12] = test system: rice (Oryza sativa); assay: as above; settings: 250 g ai/ha, Flood, applied to paddy water, 2-leaf stage, evaluated after 13 to 15 days
In short: as §2

[13] = test system: sedge, umbrella (small-flower umbrella sedge, Cyperus difformis); assay: as above; settings: 250 g ai/ha, Flood, applied to paddy water, 2-leaf stage, evaluated after 13 to 15 days
In short: as §2

[14] = test system: ducksalad (Heteranhera limosa); assay: as above; settings: 250 g ai/ha, Flood, applied to paddy water, 2-leaf stage, evaluated after 13 to 15 days
In short: as §2

[15] = test system: foxtail, giant (giant foxtail, Setaria faberii); assay: Test A preemergence, visual plant response rating; settings: for Foxtail, Giant plant response rating: 125 g ai/ha, preemergence, 0 to 100 scale, 0 no effect, 100 complete control; for Foxtail, Giant plant response rating (0 to 100 scale): 500 g ai/ha Preemergence, approx. 10 days
In short: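 Ratings 0–100 (100 = complete control), visual, vs untreated controls at ~10 days. Application pre- or postemergence; solvent mixture with surfactant; loam/sand medium.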

[16] = test system: barnyardgrass (Echinochloa crus-galli); assay: Test A preemergence, visual plant response rating; settings: for Barnyardgrass plant response rating: 125 g ai/ha, preemergence, 0 to 100 scale, 0 no effect, 100 complete control; for Barnyardgrass plant response rating (0 to 100 scale): 500 g ai/ha Preemergence, approx. 10 days
In short: as §1

[17] = test system: ragweed (common ragweed, Ambrosia elatior); assay: Test A preemergence, visual plant response rating; settings: for Ragweed plant response rating: 125 g ai/ha, preemergence, 0 to 100 scale, 0 no effect, 100 complete control; for Ragweed plant response rating (0 to 100 scale): 500 g ai/ha Preemergence, approx. 10 days
In short: as §1

[18] = test system: kochia (Kochia scoparia); assay: Test A preemergence, visual plant response rating; settings: for Kochia plant response rating: 125 g ai/ha, preemergence, 0 to 100 scale, 0 no effect, 100 complete control; for Kochia plant response rating (0 to 100 scale): 500 g ai/ha Preemergence, approx. 10 days
In short: as §1

[19] = test system: Italian ryegrass (Lolium multiflorum); assay: Test A preemergence, visual plant response rating; settings: for Ryegrass, Italian plant response rating: 125 g ai/ha, preemergence, 0 to 100 scale, 0 no effect, 100 complete control; for Ryegrass, Italian plant response rating (0 to 100 scale): 500 g ai/ha Preemergence, approx. 10 days
In short: as §1

[20] = test system: pigweed (Amaranthus retroflexus); assay: Test A preemergence, visual plant response rating; settings: for Pigweed plant response rating: 125 g ai/ha, preemergence, 0 to 100 scale, 0 no effect, 100 complete control; for Pigweed plant response rating (0 to 100 scale): 500 g ai/ha Preemergence, approx. 10 days
In short: as §1

## CON=C(c1c(O)c(C)nn(C)c1=O)c1ccc(OC)c2ccccc12 [Compound 55]
[1]
  Foxtail, Giant plant response rating (0 to 100 scale): 50
  Foxtail, Giant plant response rating: 20
[2]
  Barnyardgrass plant response rating (0 to 100 scale): 30
  Barnyardgrass plant response rating: 20
[3]
  Wheat plant response rating (0 to 100 scale): 20
  Wheat plant response rating: 0
[4]
  Ragweed plant response rating (0 to 100 scale): 30
  Ragweed plant response rating: 0
[5]
  Corn plant response rating (0 to 100 scale): 30
  Corn plant response rating: 0
[6]
  Kochia plant response rating (0 to 100 scale): 30
  Kochia plant response rating: 10
[7]
  Blackgrass plant response rating (0 to 100 scale): 80
  Blackgrass plant response rating: 70
[8]
  Ryegrass, Italian plant response rating (0 to 100 scale): 70
  Ryegrass, Italian plant response rating: 0
[9]
  Galium plant response rating (0 to 100 scale): 70
  Galium plant response rating: 50
[10]
  Pigweed plant response rating (0 to 100 scale): 20
  Pigweed plant response rating: 0
[11]
  Plant response rating, Barnyardgrass (0 to 100 scale, 0 is no effect, 100 is complete control): 0
[12]
  Plant response rating, Rice (0 to 100 scale, 0 is no effect, 100 is complete control): 0
[13]
  Plant response rating, Sedge, Umbrella (0 to 100 scale, 0 is no effect, 100 is complete control): 0
[14]
  Plant response rating, Ducksalad (0 to 100 scale, 0 is no effect, 100 is complete control): 0
[15]
  Foxtail, Giant plant response rating: 10
  Foxtail, Giant plant response rating (0 to 100 scale): 90
[16]
  Barnyardgrass plant response rating: 0
  Barnyardgrass plant response rating (0 to 100 scale): 50
[17]
  Ragweed plant response rating: 10
  Ragweed plant response rating (0 to 100 scale): 80
[18]
  Kochia plant response rating: 0
  Kochia plant response rating (0 to 100 scale): 0
[19]
  Ryegrass, Italian plant response rating: 0
  Ryegrass, Italian plant response rating (0 to 100 scale): 30
[20]
  Pigweed plant response rating: 0
  Pigweed plant response rating (0 to 100 scale): 0

## CON=C(c1ccc(F)cc1C)c1c(O)c(C)nn(C)c1=O [Compound 41]
[1]
  Foxtail, Giant plant response rating (0 to 100 scale): 0
  Foxtail, Giant plant response rating: 0
[2]
  Barnyardgrass plant response rating (0 to 100 scale): 0
  Barnyardgrass plant response rating: 0
[3]
  Wheat plant response rating (0 to 100 scale): 20
  Wheat plant response rating: 0
[4]
  Ragweed plant response rating (0 to 100 scale): 60
  Ragweed plant response rating: 30
[5]
  Corn plant response rating (0 to 100 scale): 0
  Corn plant response rating: 0
[6]
  Kochia plant response rating (0 to 100 scale): 60
  Kochia plant response rating: 20
[7]
  Blackgrass plant response rating (0 to 100 scale): 0
  Blackgrass plant response rating: 0
[8]
  Ryegrass, Italian plant response rating (0 to 100 scale): 60
  Ryegrass, Italian plant response rating: 0
[9]
  Galium plant response rating (0 to 100 scale): 70
  Galium plant response rating: 70
[10]
  Pigweed plant response rating (0 to 100 scale): 90
  Pigweed plant response rating: 40
[11]
  Plant response rating, Barnyardgrass (0 to 100 scale, 0 is no effect, 100 is complete control): 0
[12]
  Plant response rating, Rice (0 to 100 scale, 0 is no effect, 100 is complete control): 0
[13]
  Plant response rating, Sedge, Umbrella (0 to 100 scale, 0 is no effect, 100 is complete control): 0
[14]
  Plant response rating, Ducksalad (0 to 100 scale, 0 is no effect, 100 is complete control): 0
[15]
  Foxtail, Giant plant response rating: 0
  Foxtail, Giant plant response rating (0 to 100 scale): 0
[16]
  Barnyardgrass plant response rating: 0
  Barnyardgrass plant response rating (0 to 100 scale): 10
[17]
  Ragweed plant response rating: 0
  Ragweed plant response rating (0 to 100 scale): 80
[18]
  Kochia plant response rating: 0
  Kochia plant response rating (0 to 100 scale): 0
[19]
  Ryegrass, Italian plant response rating: 0
  Ryegrass, Italian plant response rating (0 to 100 scale): 20
[20]
  Pigweed plant response rating: 0
  Pigweed plant response rating (0 to 100 scale): 80
